Laboratory results taken from patent US6335350B1, “Acetamide and substituted acetamide-containing thiourea inhibitors of herpes viruses” (American Home Products Corporation, priority 1998, dated 2002).
≈ marks a conversion by molar mass, not a printed value. Like-named read-outs stand apart in the source and are kept apart here.

Assays:
HSV-1 = assay: HSV Antiviral (ELISA) Assay; format: cell-based, herpes simplex virus type 1; details: for IC50: Human alphaherpesvirus 1, Vero, read-out: IC50 Ug/ml HSV
How it was run: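 Vero cells in DMEM/2% FBS pretreated with compound 30 min before HSV-1 infection (MOI 0.006), then ~24 h at 37 °C. Viral gD detected by ELISA with β-galactosidase secondary and 4-methylumbelliferyl-galactoside (ex 365/em 450 nm); IC50 from fluorescence versus untreated infected cells.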

VZV strain Ellen = assay: VZV Antiviral (ELISA) Assay; format: cell-based, varicella-zoster virus; details: human foreskin fibroblast cells; for IC50 / inhibition at 10 µg/mL: Human alphaherpesvirus 3, Fibroblast; for IC50: read-out: IC50 Ug/ml VZV; for inhibition at 10 µg/mL: read-out: % inhibition 10 ug/ml VZV, 10 ug/ml
How it was run: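 Cell-based ELISA: infected/uninfected HFF mix (VZV Ellen, MOI <0.1) exposed to compound in DMEM/2% FBS for 3 days at 37° C. Anti-gpII monoclonal plus β-galactosidase-linked secondary, detected as 4-methylumbelliferone fluorescence; IC50 derived by comparing fluorescence with versus without compound.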

HCMV wild-type = assay: HCMV yield assay; format: cell-based, human cytomegalovirus; details: for IC50: Human betaherpesvirus 5, Fibroblast, read-out: IC50 Ug/ml HCMV
How it was run: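 HCMV wild-type infected human foreskin fibroblast monolayers at MOI typically 0.2 with varying compound concentrations; virus yield harvested at 3 days post-infection and titered on fibroblasts without inhibitor, plaques counted at 2 weeks. IC50 or IC90 = compound amount reducing yield titer by 50% or 90%.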

IC50 (HSV-1; Vero cells, HSV-1) [µg/mL]	IC50 Ug/ml HSV (HSV-1; Vero cells, HSV-1) [Ug/ml]	SMILES	IC50 (VZV strain Ellen) [µg/mL]	inhibition at 10 µg/mL (VZV strain Ellen) [%]	IC50 (HCMV wild-type; human foreskin fibroblasts) [µg/mL]	% inhibition 10 ug/ml VZV (VZV strain Ellen) [%]	IC50 Ug/ml VZV (VZV strain Ellen) [Ug/ml]	IC50 Ug/ml HCMV (HCMV wild-type; human foreskin fibroblasts) [Ug/ml]	IC50 (HSV-1) [µg/mL]	IC50 (HCMV wild-type) [µg/mL]
40 (≈ 95 µM)		CC(=O)Nc1ccc(NC(=S)Nc2ccc(OCCCN(C)C)c(Cl)c2)cc1 [Example 336, N-(4-{3-[3-Chloro-4-(3-dimethylamino-propoxy)-phenyl]-thioureido}-phenyl)-acetamide]	> 10	17	50 (≈ 119 µM)					
> 50		COc1cc(OC)c(NC(=S)Nc2ccc(NC(C)=O)c(C(=O)O)c2)cc1Cl [Example 337, 2-Acetylamino-5-[3-(5-chloro-2,4-dimethoxy-phenyl)-thioureido]-benzoic acid]	> 10	31	> 50					
> 50		CC(=O)Nc1ccc(NC(=S)Nc2ccc(OCCN(C)C)c(Cl)c2)cc1 [Example 343, N-(4-{3-[3-Chloro-4-(2-dimethylamino-ethoxy)-phenyl]-thioureido}-phenyl)-acetamide]	> 10	38	40 (≈ 98.3 µM)					
> 10		CC(=O)Nc1ccc(NC(=S)Nc2ccc(OC3CCCCC3)c(Cl)c2)cc1 [Example 345, N-{4-[3-(3-Chloro-4-cyclohexyloxy-phenyl)-thioureido]-phenyl}-acetamide]	> 10	30	> 10					
2 (≈ 4.47 µM)		COc1cc(OC)c(NC(=S)Nc2ccc(NC(C)=O)cc2C(F)(F)F)cc1Cl [Example 358, N-{4-[3-(5-Chloro-2,4-dimethoxy-phenyl)-thioureido]-3-trifluoromethyl-phenyl}-acetamide]	> 10	31	> 10					
	>10	CC(=O)Nc1ccc(NC(=S)Nc2ccc(NC(=O)CN(C)C)c(Cl)c2)cc1 [Example 360, N-{4-[3-(4-Acetylamino-phenyl)-thioureido]-2-chloro-phenyl}-2-dimethyl-amino-acetamide]				16	>10	>10		
> 10		CC(=O)Nc1ccc(NC(=S)Nc2ccc(NC(=O)CN3CCCCC3)c(Cl)c2)cc1 [Example 363, N-{4-[3-(4-Acetylamino-phenyl)-thioureido]-2-chloro-phenyl}-2-piperidin-1-yl-acetamide]	> 10	58	7 (≈ 15.2 µM)					
> 10		CC(=O)Nc1ccc(NC(=S)Nc2ccc(NC(=O)CN3CCOCC3)c(Cl)c2)cc1 [Example 366, N-{4-[3-(4-Acetylamino-phenyl)-thioureido]-2-chloro-phenyl}-2-morpholin-4-yl-acetamide]	> 10	16	> 10					
> 10		CC(=O)Nc1ccc(NC(=S)Nc2ccc(NS(C)(=O)=O)c(Cl)c2)cc1 [Example 369, N-{4-[3-(3-Chloro-4-methanesulfonylamino-phenyl)-thioureido]-phenyl}-acetamide]	> 10	0	> 10					
> 10		CC(=O)Nc1ccc(NC(=S)Nc2ccc(NC(=O)CSCCN(C)C)c(Cl)c2)cc1 [Example 372, N-{4-[3-(4-Acetylamino-phenyl)-thioureido]-2-chloro-phenyl}-2-(2-dimethylamino-ethylsulfanyl)-acetamide]	> 10	53	> 10					
3 (≈ 8.67 µM)		C=Cc1ccc(NC(=S)Nc2ccc(NC(C)=O)cc2)cc1Cl [Example 377, N-{4-[3-(3-Chloro-4-vinyl-phenyl)-thioureido]-phenyl}-acetamide]	> 10	28	0.8 (≈ 2.31 µM)					
> 10		COc1cc(OC)c(NC(=S)Nc2ccc(NC(C)=O)cc2C#N)cc1Cl [Example 383, N-{4-[3-(5-Chloro-2,4-dimethoxy-phenyl)-thioureido]-3-cyano-phenyl}-acetamide]	> 10	38	> 10					
	>10	CCN(CC)CC(=O)Nc1ccc(NC(=S)Nc2ccc(NC(C)=O)cc2)cc1Cl [Example 412, N-{4-[3-(4-Acetylamino-phenyl)-thioureido]-2-chloro-phenyl}-2-diethyl-amino-acetamide]				29	>10	>10		
		CC(=O)Nc1ccc(NC(=S)Nc2ccccc2)cc1 [Example 814, N-[4-(3-Phenyl-thioureido)-phenyl]-acetamide]	> 10	15					> 10	> 10
20 (≈ 62.5 µM)		CC(=O)Nc1ccc(NC(=S)Nc2cccc(Cl)c2)cc1 [Example 816, N-{4-[3-(3-Chloro-phenyl)-thioureido]-phenyl}-acetamide]	> 10	30	25 (≈ 78.2 µM)					
3 (≈ 6.24 µM)		CCCCCC(=O)Nc1ccc(NC(=S)Nc2cc(Br)c(OC)cc2OC)cc1 [Example 826, Hexanoic acid {4-[3-(5-bromo-2,4-dimethoxy-phenyl)-thioureido]-phenyl}-amide]	> 10	30	> 10					
3 (≈ 7.62 µM)		CCOc1cc(OC)c(Cl)cc1NC(=S)Nc1ccc(NC(C)=O)cc1 [Example 831, N-{4-[3-(5-Chloro-2-ethoxy-4-methoxy-phenyl)-thioureido]-phenyl}-acetamide]	> 10	11	> 10					
9 (≈ 22.8 µM)		CCOc1cc(OC)c(NC(=S)Nc2ccc(NC(C)=O)cc2)cc1Cl [Example 832, N-{4-[3-(5-Chloro-4-ethoxy-2-methoxy-phenyl)-thioureido]-phenyl}-acetamide]	> 10	15	> 50					
8 (≈ 17.5 µM)		COc1cc(OCc2ccccc2)c(NC(=S)Nc2ccc(NC(C)=O)cc2)cc1Cl [Example 835, N-{4-[3-(2-Benzyloxy-5-chloro-4-methoxy-phenyl)-thioureido]-phenyl}-acetamide]	> 10	38	> 10					
8 (≈ 17.5 µM)		COc1cc(OCc2ccccc2)c(Cl)cc1NC(=S)Nc1ccc(NC(C)=O)cc1 [Example 836, N-{4-[3-(4-Benzyloxy-5-chloro-2-methoxy-phenyl)-thioureido]-phenyl}-acetamide]	2.5 (≈ 5.48 µM)	92	> 10					
> 50		COc1cc(OCC(N)=O)c(Cl)cc1NC(=S)Nc1ccc(NC(C)=O)cc1 [Example 838, 2-{4-[3-(4-Acetylamino-phenyl)-thioureido]-2-chloro-5-methoxy-phenoxy}-acetamide]	> 10	20	> 10					
10 (≈ 27.3 µM)		COc1cc(O)c(NC(=S)Nc2ccc(NC(C)=O)cc2)cc1Cl [Example 839, N-{4-[3-(5-Chloro-2-hydroxy-4-methoxy-phenyl)-thioureido]-phenyl}-acetamide]	> 10	17	15 (≈ 41 µM)					
1.5 (≈ 4.1 µM)		CSc1ccc(NC(=S)Nc2ccc(NC(C)=O)cc2)cc1Cl [Example 840, N-{4-[3-(3-Chloro-4-methylsulfanyl-phenyl)-thioureido]-phenyl}-acetamide]	> 10	0	0.4 (≈ 1.09 µM)					
> 10		CC(=O)Nc1ccc(NC(=S)Nc2ccc(N(C)c3ccccc3)c(Cl)c2)cc1 [Example 842, N-(4-{3-[3-Chloro-4-(methyl-phenyl-amino)-phenyl]-thioureido}-phenyl)-acetamide]	> 10	33	1.5 (≈ 3.53 µM)					
5 (≈ 9.84 µM)		CC(=O)Nc1ccc(NC(=S)Nc2ccc(N(C)C3CCN(Cc4ccccc4)C3)c(Cl)c2)cc1 (stereo not shown) [Example 843, N-[4-(3-{4-[(1-Benzyl-pyrrolidin-3-yl)-methyl-amino]-3-chloro-phenyl}-thioureido)-phenyl]-acetamide]	> 10	50	0.7 (≈ 1.38 µM)					

SMILES	IC50 (HSV-1; Vero cells, HSV-1) [µg/mL]	IC50 Ug/ml HSV (HSV-1; Vero cells, HSV-1) [Ug/ml]	IC50 (VZV strain Ellen) [µg/mL]	inhibition at 10 µg/mL (VZV strain Ellen) [%]	IC50 (HCMV wild-type; human foreskin fibroblasts) [µg/mL]	% inhibition 10 ug/ml VZV (VZV strain Ellen) [%]	IC50 Ug/ml VZV (VZV strain Ellen) [Ug/ml]	IC50 Ug/ml HCMV (HCMV wild-type; human foreskin fibroblasts) [Ug/ml]	IC50 (HSV-1) [µg/mL]	IC50 (HCMV wild-type) [µg/mL]
CCCCOc1cc(OC)c(Cl)cc1NC(=S)Nc1ccc(NC(C)=O)cc1 [Example 833, N-{4-[3-(2-Butoxy-5-chloro-4-methoxy-phenyl)-thioureido]-phenyl}-acetamide]	7 (≈ 16.6 µM)		> 10	54	> 10					
CCCCOc1cc(OC)c(NC(=S)Nc2ccc(NC(C)=O)cc2)cc1Cl [Example 834, N-{4-[3-(4-Butoxy-5-chloro-2-methoxy-phenyl)-thioureido]-phenyl}-acetamide]	10 (≈ 23.7 µM)		15 (≈ 35.5 µM)	93	> 10					
CC(=O)Nc1ccc(NC(=S)Nc2ccc(N(C)C3CCN(C)CC3)c(Cl)c2)cc1 [Example 841, N-[4-(3-{3-Chloro-4-[methyl-(1-methyl-piperidin-4-yl)-amino]-phenyl}-thioureido)-phenyl]-acetamide]	> 50		> 10	30	0.9 (≈ 2.02 µM)					
